Laboratory results: US20190256822A1, “HEPATIC CELL LINE RESISTANT TO DIMETHYL SULFOXIDE, CELL CULTURE AND USES THEREOF” (Academisch Medisch Centrum, priority 2016, published 2019)
One block for each molecule: values may come before it.

Legend:
[1] = system: CAR target gene CYP2B6; assay: CYP induction: CYP2B6 transcript levels after CITCO (CAR inducer); assay type: cell-based, human
[2] = system: HepG2 cells; assay: Mitochondrial content (mitochondrial to nuclear DNA ratio) after culture with DMSO; assay type: cell-based, human; details: HepG2-CAR cultured with DMSO vs HepG2-CAR without DMSO
Excerpt: (§1) To assess the cellular mitochondrial content the inventors determined the mitochondrial/nuclear DNA ratio. Total DNA was isolated with the QIAamp DNA Mini Blood kit (QIAgen) according to manufacturer's instructions.
(§2) For a list of PCR-primers used, see supplementary table 1.

[3] = system: HepaRG cells; assay: as above; assay type: cell-based, human; details: vs cells not cultured in presence of DMSO
Excerpt: as §1, §2

[4] = system: HepaRG cells; details: human, 14 days, 1.7 %
Experimental: For testing, the cells were fully matured during 28 days in 12- or 24-well culture plates. […] For testing the effect of CAR overexpression HepaRG and HepaRG-CAR cultures of similar passage (±1 passage) were compared, between passage 15-19.
(§4) Protein levels of cell cultures were assessed with the Bio-Rad Protein Assay (Bio-Rad, Hercules, Calif.) according to manufacturer's instructions after lysis in 0.2 M NaOH for 1 h at 37° C.

[5] = system: HepaRG monolayers; details: cited from earlier work
[6] = system: HepG2 cells; details: human, 1.7 %
Experimental: HepG2 cells were maintained in T75 flasks until 80-90% confluency after which they were propagated in new flasks. The cells were propagated similarly as HepaRG cells. HepG2 cells were seeded at a 1:3-1:4 ratio in 12 or 24 well plates.
as §4

[7] = system: CAR mRNA; assay: CAR mRNA levels after culture with DMSO; assay type: cell-based, human
Experimental: (§3) RT-qPCR measurements were performed on a Lightcycler 480 (Roche) with Sensifast SYBR Green master mix (Bioline) according to manufacturer's instructions. […] Normalized mRNA levels are expressed as a percentage of the mean mRNA levels of two human liver samples normalized to 18S rRNA. The human liver samples were obtained from two female patients with liver adenoma and no elevated liver damage. […] The samples were taken after obtaining written informed consent and the procedure was approved by the Academic Medical Center's committee on human experimentation (protocol number 03/024).

[8] = system: HepaRG cells; assay: Lactate production after culture with DMSO; assay type: cell-based, human
Experimental: The cultures were washed twice with PBS and then exposed to phenol-red free HepaRG culture medium with 1.5 mM ^15NH4Cl (Sigma), 2.27 mM D-galactose (Sigma), and 2 mM L-lactate (Sigma) without DMSO. Medium samples were taken after 45 min, 8 and 24 hours of incubation. Production or elimination rates were established by calculating the concentration changes of different compounds, as indicated below, in the test media in time, and were corrected for protein content per well.

[9] = system: AHR target gene CYP1A2; details: 24 h, 40 μM
Experimental: as §3
Transcript levels of CYP genes were compared in cultures with and without induction.

[10] = system: HepaRG+/-CAR monolayer cultures
Experimental: At the 0 h time point the cells were incubated for 5 s to correct for non-specific binding of the added compounds to the cells and the culture plate. Medium samples of the indicated time points were immediately frozen at −80° C. Prior to HPLC analysis samples were thawed on ice and deproteinized with the addition of 4 volumes of acetonitrile (for prednisolone and theophylline), vacuum evaporated and dissolved in water. Warfarin samples were instead deproteinized with 2 volumes of methanol and spun down for 5 minutes at 20000 g at 4° C. Supernatants were used for HPLC analysis.
Reverse-phase HPLC detection was done as follows. Deproteinized samples (100 μl for prednisolone and theophylline, 30 μl for warfarin) were applied to a Hypersil C18, 3 μm, 15 cm HPLC column (Thermo Scientific). Starting eluent consisted of 6.8 mM ammoniumformate (pH 3.9), followed by several steps of linear gradients to different concentrations of acetonitrile (ACN) (Biosolve, Valkenswaard, The Netherlands). […] Detection of prednisolone was performed at λabs=254 nm, theophylline at λabs=270 nm, warfarin at λexc=310 nm/λem=390 nm. Quantification was done by using calibration curves of prednisolone, theophylline, or warfarin.

fold induction of CYP2B6 transcript ([1]; CITCO 1 μM, 24 h, control and modified HepaRG monolayers, independent of DMSO treatment): 4.2-6.1 ×
fold induction of CYP2B6 transcript ([1]; control HepaRG BALIAD culture without DMSO, CITCO 24 h): 6.5 ×
fold induction of CYP2B6 transcript ([1]; modified HepaRG BALIAD culture without DMSO, CITCO 24 h): 3.6 ×
total CYP2B6 mRNA level after induction, of human liver ([1]; modified HepaRG BALIAD, CITCO 24 h): ≤ 1023%
total CYP2B6 transcript level after induction, of human liver ([1]; modified HepaRG monolayer, CITCO 24 h): ≤ 430%
SMILES: Clc1ccc(-c2nc3sccn3c2/C=N/OCc2ccc(Cl)c(Cl)c2)cc1 [CITCO]

reduction of protein content [4]: 40%
reduction of total protein content [4]: 19%
reduction of total protein content [6]: 15%-18
SMILES: C[S+](C)[O-] [DMSO, dimethyl sulfoxide]
increase of mitochondrial to nuclear DNA ratio [2]: 1.3 ×
increase of mitochondrial to nuclear DNA ratio ([3]; HepaRG-CAR monolayer): 2 ×
increase of mitochondrial to nuclear DNA ratio ([3]; unmodified HepaRG monolayer): 1.8 ×
increase of cell leakage [5]: 3- to 4 fold
reduction of total cellular protein content [5]: more than 50%
CAR mRNA level, of human liver ([7]; control HepaRG cells cultured with DMSO (5.3% without)): 15%
CAR mRNA level, of human liver ([7]; modified HepaRG cells cultured with DMSO (108% without)): 208%
reduction of lactate production ([8]; HepaRG-CAR monolayer cultured with DMSO vs control cells without DMSO): 92%
reduction of lactate production ([8]; control HepaRG monolayer cultured with DMSO vs control cells without DMSO): 57%

total CYP1A2 mRNA level after induction, of human liver [9]: ≤ 31%
total CYP1A2 transcript level after induction, of human liver [9]: ≤ 23%
SMILES: COc1ccc2[nH]c([S+]([O-])Cc3ncc(C)c(OC)c3C)nc2c1 (centres unmarked) [omeprazole]

clearance rate in HepaRG-CAR cultured with DMSO compared to all other conditions [10]: cleared at an increased rate
SMILES: C[C@]12C=CC(=O)C=C1CC[C@@H]1[C@@H]2[C@@H](O)C[C@@]2(C)[C@H]1CC[C@]2(O)C(=O)CO [prednisolone]

clearance [10]: could not reliably observe any clearance
SMILES: Cn1c(=O)c2[nH]cnc2n(C)c1=O [theophylline, theophylline anhydrous]

clearance rate in HepaRG-CAR cultured with DMSO compared to all other conditions [10]: cleared at an increased rate
period of linear clearance ([10]; human, 1 μM): 24 to 48 h
SMILES: CC(=O)CC(c1ccccc1)c1c(O)c2ccccc2oc1=O (centres unmarked) [warfarin]
